Laboratory results: patent publication US6610883B1, “Compounds having selective activity for retinoid X receptors, and means for modulation of processes mediated by retinoid X receptors” (Ligand Pharmaceuticals, Inc., priority 1992, dated 2003)

Assays:
RXRβ/VDR = target: T1, RXRβ/VDR (UniProt P11473+P28704); test: Co-transfection of RXRβ and VD receptors in CV-1 cells; assay type: cell-based
T1 construct: expressed in transfected cells; host or cells: CV-1

RARγ [1] = target: T2, RARγ (Homo sapiens, UniProt P13631); test: Radioligand displacement binding, RARγ
T2 sequence (P13631 1-454): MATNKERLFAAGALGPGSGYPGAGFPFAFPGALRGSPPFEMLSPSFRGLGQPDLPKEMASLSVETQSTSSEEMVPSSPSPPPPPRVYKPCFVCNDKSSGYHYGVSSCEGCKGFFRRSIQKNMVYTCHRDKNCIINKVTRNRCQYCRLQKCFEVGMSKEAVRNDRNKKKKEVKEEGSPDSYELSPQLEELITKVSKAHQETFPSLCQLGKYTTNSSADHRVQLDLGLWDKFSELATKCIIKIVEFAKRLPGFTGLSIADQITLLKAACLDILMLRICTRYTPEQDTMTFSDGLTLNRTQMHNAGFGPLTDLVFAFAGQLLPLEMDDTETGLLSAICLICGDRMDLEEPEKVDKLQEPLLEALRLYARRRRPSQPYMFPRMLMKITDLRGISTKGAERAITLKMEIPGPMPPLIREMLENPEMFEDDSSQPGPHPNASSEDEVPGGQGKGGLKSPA
Method: (§7) The binding parameters of receptors expressed in baculovirus systems and mammalian systems are essentially identical.
(§8) By testing the abilities of various synthetic retinoids to compete with the radiolabeled retinoic acid for binding to various receptor isoforms, the ability of the compounds to directly interact with the receptor can be examined, and the relative dissociation constant for the receptor itself can be determined.
(§9) The Kd values were determined by application of the Cleng-Prusoff equation. These values were based on a determination of the IC50 value as determined graphically from a log-logit plot of the data.

RARβ [2] = target: T3, RARβ (Homo sapiens, UniProt P10826); test: Radioligand displacement binding, RARβ
T3 sequence (P10826 1-455): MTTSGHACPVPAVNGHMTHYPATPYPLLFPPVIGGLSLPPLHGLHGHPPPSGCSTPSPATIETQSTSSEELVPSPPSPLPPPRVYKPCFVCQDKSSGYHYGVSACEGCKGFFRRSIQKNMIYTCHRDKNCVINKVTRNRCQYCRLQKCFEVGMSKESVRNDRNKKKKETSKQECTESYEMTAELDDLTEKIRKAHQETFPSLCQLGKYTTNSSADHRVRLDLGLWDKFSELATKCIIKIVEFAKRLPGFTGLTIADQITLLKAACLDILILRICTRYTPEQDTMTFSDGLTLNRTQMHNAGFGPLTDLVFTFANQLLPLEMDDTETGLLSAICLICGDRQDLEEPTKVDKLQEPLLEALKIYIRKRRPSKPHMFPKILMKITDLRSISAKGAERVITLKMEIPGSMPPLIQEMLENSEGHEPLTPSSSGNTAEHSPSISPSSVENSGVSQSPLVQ
Method: as §7, §8, §9

RARβ [3] = target: T3, RARβ; test: Co-transfection (cis-trans) assay in CV-1 cells, RARβ; assay type: cell-based; parameters: expressed in transfected cells; host or cells: CV-1 (monkey kidney)
Text: (§1) The co-transfection assay provides a mechanism to evaluate the ability of a compound to modulate the transcription response initiated by an intracellular receptor. […] Berger, et al., J. Steroid Biochem Molec.
(§2) Briefly, the co-transfection assay involves the introduction of two plasmids by transient transfection into a retinoid receptor-negative mammalian cell background. The first plasmid contains a retinoid receptor cDNA and directs constitutive expression of the encoded receptor. The second plasmid contains a cDNA that encodes for a readily quantifiable protein, e.g., firefly luciferase or chloramphenicol acetyl transferase (CAT), under control of a promoter containing a retinoid acid response element, which confers retinoid dependence on the transcription of the reporter. In this co-transfection assay, all retinoid receptors respond to all-trans-retinoic acid in a similar fashion. This assay can be used to accurately measure efficacy and potency of retinoic acid and synthetic retinoids as ligands that interact with the individual retinoid receptor subtypes.
(§3) Accordingly, synthetic retinoid compounds of the current invention were evaluated for their interaction with retinoid receptor subtypes using the co-transfection assay in which CV-1 cells were co-transfected with one of the retinoid receptor subtypes, a reporter construct, and an internal control to allow normalization of the response for transfection efficiency. The following example is illustrative.
(§4) Retinoids: All-tans-retinoic acid (RA) and 13-cis-retinoic acid (13-cis-RA) were obtained from Sigma. […] Retinoids were dissolved in dimethylsulfoxide for use in the transcriptional activation assays.
(§5) Co-transfection Assay In CV-1 Cells: A monkey kidney cell line, CV-1, was used in the cis-trans assay. Cells were transfected with two plasmids. […] The cis-vector contains an easily assayable gene product, in this case the firefly luciferase, coupled to a retinoid-responsive promoter, i.e., an RARE or RXRE. Addition of retinoic acid or an appropriate synthetic retinoid results in the formation of a retinoid-RAR or -RXR complex that activates the expression of luciferase gene, causing light to be emitted from cell extracts. The level of luciferase activity is directly proportional to the effectiveness of the retinoid-receptor complex in activating gene expression. This sensitive and reproducible co-transfection approach permits the identification of retinoids that interact with the different receptor isoforms.
(§6) Cells were cultured in DMEM supplemented with 10% charcoal resin-stripped fetal bovine serum, and experiments were conducted in 96-well plates. […] Cells were transfected for 6 h and then washed to remove the precipitate. The cells were then incubated for 36 h with or without retinoid. After the transfection, all subsequent steps were performed on a Beckman Biomek Automated Workstation. […] All determinations were performed in triplicate in two independent experiments and were normalized for transfection efficiency by using β-galactosidase as the internal control. […] Efficacy values less than 5% are not statistically different than the 0% background.

RARγ [4] = target: T2, RARγ; test: Co-transfection (cis-trans) assay in CV-1 cells, RARγ; assay type: cell-based; parameters: expressed in transfected cells; host or cells: CV-1 (monkey kidney)
Text: as §1, §2, §3, §4, §5, §6

RARα [5] = target: T4, RARα (Homo sapiens, UniProt P10276); test: Radioligand displacement binding, RARα; parameters: made in house; conditions: displacement of radiolabeled retinoic acid, read-out: Binding (Kd50 nM)
T4 sequence (P10276 1-462): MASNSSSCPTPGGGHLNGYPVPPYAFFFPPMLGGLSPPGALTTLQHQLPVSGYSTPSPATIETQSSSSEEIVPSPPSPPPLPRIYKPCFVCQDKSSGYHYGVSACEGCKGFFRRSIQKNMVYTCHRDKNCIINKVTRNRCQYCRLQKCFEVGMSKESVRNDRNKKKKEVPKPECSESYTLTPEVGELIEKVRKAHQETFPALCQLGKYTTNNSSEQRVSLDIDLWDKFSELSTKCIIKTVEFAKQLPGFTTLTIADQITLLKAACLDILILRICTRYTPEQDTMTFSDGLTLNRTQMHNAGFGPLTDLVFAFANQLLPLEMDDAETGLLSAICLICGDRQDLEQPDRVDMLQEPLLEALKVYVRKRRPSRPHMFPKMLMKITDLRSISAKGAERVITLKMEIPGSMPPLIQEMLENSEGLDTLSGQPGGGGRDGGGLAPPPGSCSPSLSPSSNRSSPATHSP
Method: as §7, §8, §9

RARα [6] = target: T4, RARα; test: Co-transfection (cis-trans) assay in CV-1 cells, RARα; assay type: cell-based; parameters: expressed in transfected cells; host or cells: CV-1 (monkey kidney)
Text: as §1, §2, §3, §4, §5, §6

[7] = CV-1, maximal response relative to all-trans-retinoic acid at 10^−5 M, read-out: Efficacy
[8] = CV-1 cells, luciferase reporter, 36 h, read-out: Potency

T1 sequence (P28704 whole entry): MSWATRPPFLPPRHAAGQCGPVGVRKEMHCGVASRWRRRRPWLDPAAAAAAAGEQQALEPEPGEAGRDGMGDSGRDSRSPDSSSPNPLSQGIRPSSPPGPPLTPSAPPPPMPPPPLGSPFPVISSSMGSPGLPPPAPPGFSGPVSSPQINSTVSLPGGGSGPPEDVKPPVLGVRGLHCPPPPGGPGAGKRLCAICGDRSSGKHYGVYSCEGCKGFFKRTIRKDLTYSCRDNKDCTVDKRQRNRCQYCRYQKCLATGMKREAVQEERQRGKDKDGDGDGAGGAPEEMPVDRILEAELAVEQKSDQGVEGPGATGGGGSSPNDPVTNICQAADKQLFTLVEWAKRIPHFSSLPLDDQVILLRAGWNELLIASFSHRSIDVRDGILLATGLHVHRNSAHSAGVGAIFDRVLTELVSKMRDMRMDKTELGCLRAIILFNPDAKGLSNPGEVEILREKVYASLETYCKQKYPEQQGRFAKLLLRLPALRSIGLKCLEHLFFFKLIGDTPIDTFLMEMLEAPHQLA
T1 sequence (P11473 whole entry): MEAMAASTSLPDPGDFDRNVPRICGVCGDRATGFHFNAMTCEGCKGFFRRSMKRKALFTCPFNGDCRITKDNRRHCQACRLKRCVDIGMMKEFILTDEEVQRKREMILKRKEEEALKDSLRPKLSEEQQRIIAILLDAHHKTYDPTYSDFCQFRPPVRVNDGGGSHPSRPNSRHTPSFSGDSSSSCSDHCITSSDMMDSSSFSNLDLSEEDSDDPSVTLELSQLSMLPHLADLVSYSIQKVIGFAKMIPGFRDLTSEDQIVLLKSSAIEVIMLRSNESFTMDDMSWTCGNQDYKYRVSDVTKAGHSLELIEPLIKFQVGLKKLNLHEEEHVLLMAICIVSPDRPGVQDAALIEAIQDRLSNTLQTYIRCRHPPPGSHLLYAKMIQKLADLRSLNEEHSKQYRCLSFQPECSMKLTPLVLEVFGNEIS

Row | Compound | Normalized Response (%) (RXRβ/VDR) | Kd (RARγ [1]) [µM] | Kd (RARβ [2]) [µM] | Emax at 10 µM (RARβ [3]; [7]) [%] | EC50 (RARβ [3]; [8]) [µM] | Emax at 10 µM (RARγ [4]; [7]) [%] | EC50 (RARγ [4]; [8]) [µM] | Kd (RARα [5]) [µM] | Emax at 10 µM (RARα [6]; [7]) [%] | EC50 (RARα [6]; [8]) [µM]
1 | 1,25-dihydroxy-vitamin D | 100 | – | – | – | – | – | – | – | – | –
2 | C=C(c1ccc(C(=O)O)cn1)c1cc2c(cc1C)C(C)(C)CCC2(C)C [TPNEP (58), 2-[1-(3,5,5,8,8-pentamethyl-5,6,7,8-tetrahydro-2-naphthyl)ethenyl]pyridine-5-carboxylic acid] | – | 6 | 4.9 | < 2 | > 10 | 24 | 1.5 | 7.8 | < 2 | > 10
